Experiments:
[1] = target: T1, Type II NADH dehydrogenase (NDH-2, NdhC) (Staphylococcus aureus, UniProt Q2FZV7); assay: activity of FAD-depleted purified enzyme restored by added FAD; format: biochemical
T1 construct: gene SAOUHSC_00878; N-terminal 6His-tagged NDH-2 (ndhC gene from S. aureus 25923)
T1 sequence (Q2FZV7 1-402): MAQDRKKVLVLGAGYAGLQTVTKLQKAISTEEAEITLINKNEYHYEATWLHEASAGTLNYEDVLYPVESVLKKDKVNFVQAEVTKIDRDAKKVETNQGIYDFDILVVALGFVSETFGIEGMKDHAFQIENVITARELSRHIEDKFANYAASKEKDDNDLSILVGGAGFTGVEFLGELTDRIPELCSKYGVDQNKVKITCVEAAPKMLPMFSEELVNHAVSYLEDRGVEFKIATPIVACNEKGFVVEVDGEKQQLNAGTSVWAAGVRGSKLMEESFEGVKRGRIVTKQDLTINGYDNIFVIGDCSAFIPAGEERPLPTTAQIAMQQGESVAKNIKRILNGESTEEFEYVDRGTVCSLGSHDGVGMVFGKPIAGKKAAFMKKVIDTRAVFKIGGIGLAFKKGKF

[2] = target: T1, Type II NADH dehydrogenase (NDH-2, NdhC); assay: NADH oxidation assay at […] nm with menadione; format: biochemical
[3] = substrate: CC1=CC(=O)c2ccccc2C1=O; assay: steady-state kinetics of purified enzyme (Km); format: biochemical, Staphylococcus aureus; conditions: FAD
[4] = substrate: NC(=O)C1=CN([C@@H]2O[C@H](COP(=O)(O)OP(=O)(O)OC[C@H]3O[C@@H](n4cnc5c(N)ncnc54)[C@H](O)[C@@H]3O)[C@@H](O)[C@H]2O)C=CC1; assay: steady-state kinetics of purified enzyme (Km); format: biochemical, Staphylococcus aureus; conditions: FAD

Question: With Cc1cc2nc3c(=O)[nH]c(=O)nc-3n(C[C@H](O)[C@H](O)[C@H](O)COP(=O)(O)OP(=O)(O)OC[C@H]3O[C@@H](n4cnc5c(N)ncnc54)[C@H](O)[C@@H]3O)c2cc1C [FAD] as the molecule, how does the “activity of FAD-depleted purified enzyme restored by added FAD” value [1] read?
Answer: Its value is “the addition of exogenous FAD to the reaction mix restored the NADH dehydrogenase activity of the recombinant protein”.

Question: CCCCCCCc1cc(O)c2ccccc2[n+]1[O-] [HQNO, 2-heptyl-4-hydroxyquinoline-N-oxide] was tested. Which IC50 [2] did it give?
Answer: The IC50 was 9 µM.

B1: Type II NADH dehydrogenase (NDH-2, NdhC) (Staphylococcus aureus subsp. aureus NCTC 8325) (protein)
chain: T1 sequence (Q2FZV7 1-402)
notes: N-terminal 6His-tagged NDH-2 (ndhC gene from S. aureus 25923)
Question: For B1, which Km [3] is on record?
Answer: Its Km is 19.9 ± 0.7 µM.

Question: What about the Km [4] of the same molecule?
Answer: The Km was 90.8 ± 16.2 µM.

Source: paper PMC11124336 (Molecules, 2024)
